Data from US20260053834A1, “COVALENT MODIFIERS OF AKT1 AND USES THEREOF” (Terremoto Biosciences, Inc., priority 2023, published 2026).

Columns and labels:
[1] = biological target: T1, AKT2 (Homo sapiens, UniProt P31751); test: Live cell target engagement by NanoBRET competitive probe displacement, AKT2; format: binding; conditions: transfected HEK293 cells, 2 h at 37° C., read-out: AKT2 IC50: GeoMean IC50
T1 construct: expressed in transfected cells; host or cells: HEK293

[2] = biological target: T2, AKT1 WT (Homo sapiens, UniProt P31749); test: Live cell target engagement by NanoBRET competitive probe displacement, AKT1 WT; format: binding; conditions: transfected HEK293 cells, 2 h at 37° C., read-out: AKT1 WT IC50: GeoMean IC50
T2 construct: expressed in transfected cells; host or cells: HEK293

[3] = system: LAPC4 prostate cancer cells, which express the AKT1 E17K allele; test: Antiproliferative effects in LAPC4 cells (CellTiter Glo, 72 h); format: cell-based; conditions: Homo sapiens, LAPC4, 72 h, read-out: LAPC4 proliferation IC50: GeoMean IC50
How it was run: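 Cells grown in IMDM with 12% FBS, seeded at 1,000 cells/well and treated with compound dilutions in DMSO for 72 h. Intracellular ATP read by luminescence. IC50 from a log(inhibitor) vs. response Hill fit.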

[4] = biological target: T3, AKT1 E17K (Homo sapiens, UniProt P31749, E17K); test: Live cell target engagement by NanoBRET competitive probe displacement, AKT1 E17K; format: binding; conditions: transfected HEK293 cells, 2 h at 37° C., read-out: AKT1 E17K IC50: GeoMean IC50
T3 construct: expressed in transfected cells; host or cells: HEK293
T3 sequence (P31749 whole entry E17K): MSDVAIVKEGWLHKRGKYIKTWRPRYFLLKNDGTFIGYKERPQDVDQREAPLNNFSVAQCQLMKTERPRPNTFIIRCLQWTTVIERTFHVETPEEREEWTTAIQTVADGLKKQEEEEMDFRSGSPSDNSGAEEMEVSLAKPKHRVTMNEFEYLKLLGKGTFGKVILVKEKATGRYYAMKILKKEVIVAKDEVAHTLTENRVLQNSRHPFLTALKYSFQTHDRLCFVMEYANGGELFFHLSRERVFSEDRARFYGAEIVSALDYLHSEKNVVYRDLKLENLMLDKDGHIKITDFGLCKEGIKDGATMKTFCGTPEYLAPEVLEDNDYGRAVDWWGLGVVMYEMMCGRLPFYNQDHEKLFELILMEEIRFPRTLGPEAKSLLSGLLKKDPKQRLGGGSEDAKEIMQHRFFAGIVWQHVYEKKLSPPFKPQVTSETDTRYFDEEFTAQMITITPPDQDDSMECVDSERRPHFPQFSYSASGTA

T1 sequence (P31751 whole entry): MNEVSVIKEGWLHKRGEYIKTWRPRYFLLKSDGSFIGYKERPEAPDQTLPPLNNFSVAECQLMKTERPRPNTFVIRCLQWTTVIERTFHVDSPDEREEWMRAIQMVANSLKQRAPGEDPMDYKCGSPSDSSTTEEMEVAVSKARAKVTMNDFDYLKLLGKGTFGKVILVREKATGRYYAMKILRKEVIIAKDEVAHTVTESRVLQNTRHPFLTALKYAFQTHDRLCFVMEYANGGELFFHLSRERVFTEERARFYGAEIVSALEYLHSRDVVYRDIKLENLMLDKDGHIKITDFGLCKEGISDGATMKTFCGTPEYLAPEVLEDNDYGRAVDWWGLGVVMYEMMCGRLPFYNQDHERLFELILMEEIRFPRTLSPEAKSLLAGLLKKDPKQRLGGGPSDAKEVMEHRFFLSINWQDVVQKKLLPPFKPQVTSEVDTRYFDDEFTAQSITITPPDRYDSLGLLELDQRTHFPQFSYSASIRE
T2 sequence (P31749 whole entry): as the sequence (P31749 whole entry E17K) above, with K17E counted along it

Structure (SMILES)	IC50 [1] [nM]	IC50 [2] [nM]	IC50 [3] [nM]	IC50 [4] [nM]
Nc1ncccc1-c1nc2ccc(-n3cc(C(F)F)cn3)nc2n1-c1ccc2c(c1)CC[C@@H]2NC(=O)c1ccc(O)c(C=O)c1 [Example 94, N-[(1S)-5-[2-(2-aminopyridin-3-yl)-5-[4-(difluoromethyl)pyrazol-1-yl]imidazo[4,5-b]pyridin-3-yl]-2,3-dihydro-1H-inden-1-yl]-3-formyl-4-hydroxybenzamide]	100 to 2000	100 to 2000	100 to 2000	10 to 100
CS(=O)(=O)Nc1ccc(C(=O)N[C@H]2CCc3cc(-n4c(-c5cccnc5N)nc5ccc(-c6ccccc6)nc54)ccc32)cc1C=O [Example 51, N-[(1S)-5-[2-(2-aminopyridin-3-yl)-5-phenylimidazo[4,5-b]pyridin-3-yl]-2,3-dihydro-1H-inden-1-yl]-3-formyl-4-methanesulfonamidobenzamide]	10 to 100	10 to 100	10 to 100	< 10
Nc1ncccc1-c1nc2ccc(-c3ccn(C(F)F)n3)nc2n1-c1ccc2c(c1)CC[C@@H]2NC(=O)c1cc(C=O)c(O)c(F)c1F [Example 157, (S)—N-(5-(2-(2-aminopyridin-3-yl)-5-(1-(difluoromethyl)-1H-pyrazol-3-yl)-3H-imidazo[4,5-b]pyridin-3-yl)-2,3-dihydro-1H-inden-1-yl)-2,3-difluoro-5-formyl-4-hydroxybenzamide]	10 to 100	10 to 100	10 to 100	< 10
Nc1ncccc1-c1nc2ccc(-n3ccc(-n4cccn4)n3)nc2n1-c1ccc2c(c1)CC[C@@H]2NC(=O)c1ccc(O)c(C=O)c1 [Example 117, (S)—N-(5-(5-(1′H-[1,3′-bipyrazol]-1′-yl)-2-(2-aminopyridin-3-yl)-3H-imidazo[4,5-b]pyridin-3-yl)-2,3-dihydro-1H-inden-1-yl)-3-formyl-4-hydroxybenzamide]	100 to 2000	10 to 100	10 to 100	10 to 100
Nc1ncccc1-c1nc2ccc(-n3cccn3)nc2n1-c1ccc2c(c1)CC[C@@H]2NC(=O)c1ccc(O)c(C=O)c1F [Example 255, (S)—N-(5-(2-(2-aminopyridin-3-yl)-5-(1H-pyrazol-1-yl)-3H-imidazo[4,5-b]pyridin-3-yl)-2,3-dihydro-1H-inden-1-yl)-2-fluoro-3-formyl-4-hydroxybenzamide]	100 to 2000	100 to 2000	100 to 2000	10 to 100
Nc1ncccc1-c1nc2ccc(-n3cccn3)nc2n1-c1ccc2c(c1)CC[C@@H]2NC(=O)c1cc(C=O)c(O)c(OC(F)F)c1 [Example 168, (S)—N-(5-(2-(2-aminopyridin-3-yl)-5-(1H-pyrazol-1-yl)-3H-imidazo[4,5-b]pyridin-3-yl)-2,3-dihydro-1H-inden-1-yl)-3-(difluoromethoxy)-5-formyl-4-hydroxybenzamide]	100 to 2000	10 to 100	100 to 2000	10 to 100
Nc1ncccc1-c1nc2ccc(-c3ccn(C4CC4)n3)nc2n1-c1ccc2c(c1)CC[C@@H]2NC(=O)c1cc(C=O)c(O)cc1F [Example 240, N-[(1S)-5-[2-(2-aminopyridin-3-yl)-5-(1-cyclopropylpyrazol-3-yl)imidazo[4,5-b]pyridin-3-yl]-2,3-dihydro-1H-inden-1-yl]-2-fluoro-5-formyl-4-hydroxybenzamide]	100 to 2000	10 to 100	10 to 100	10 to 100
Cc1cnc(-c2ccc3nc(-c4cccnc4N)n(-c4ccc5c(c4)CC[C@@H]5NC(=O)c4cc(C=O)c(O)cc4F)c3n2)s1 [Example 185, N-[(1S)-5-[2-(2-aminopyridin-3-yl)-5-(5-methyl-1,3-thiazol-2-yl)imidazo[4,5-b]pyridin-3-yl]-2,3-dihydro-1H-inden-1-yl]-2-fluoro-5-formyl-4-hydroxybenzamide]	100 to 2000	10 to 100	10 to 100	10 to 100
Nc1ncccc1-c1nc2ccc(-n3ccc(F)n3)nc2n1-c1ccc2c(c1)CC[C@@H]2NC(=O)c1cc(C=O)c(O)cc1F [Example 135, N-[(1S)-5-[2-(2-aminopyridin-3-yl)-5-(3-fluoropyrazol-1-yl)imidazo[4,5-b]pyridin-3-yl]-2,3-dihydro-1H-inden-1-yl]-2-fluoro-5-formyl-4-hydroxybenzamide]	100 to 2000	10 to 100	10 to 100	10 to 100
Nc1ncccc1-c1nc2ccc(-n3ccc(F)n3)nc2n1-c1ccc2c(c1)CC[C@@H]2NC(=O)c1cc(C=O)c(O)c(F)c1F [Example 125, (S)—N-(5-(2-(2-aminopyridin-3-yl)-5-(3-fluoro-1H-pyrazol-1-yl)-3H-imidazo[4,5-b]pyridin-3-yl)-2,3-dihydro-1H-inden-1-yl)-2,3-difluoro-5-formyl-4-hydroxybenzamide]	100 to 2000	10 to 100	10 to 100	< 10
Cc1cnc(-c2ccc3nc(-c4cccnc4N)n(-c4ccc5c(c4)CC[C@@H]5NC(=O)c4cc(C=O)c(O)c(F)c4F)c3n2)s1 [Example 186, N-[(1S)-5-[2-(2-aminopyridin-3-yl)-5-(5-methyl-1,3-thiazol-2-yl)imidazo[4,5-b]pyridin-3-yl]-2,3-dihydro-1H-inden-1-yl]-2,3-difluoro-5-formyl-4-hydroxybenzamide]	100 to 2000	10 to 100	10 to 100	10 to 100
Nc1ncccc1-c1nc2ccc(-n3cccn3)nc2n1-c1ccc2c(c1)CC[C@@H]2NC(=O)c1cc(C=O)c(O)c2scnc12 [Example 242, (S)—N-(5-(2-(2-aminopyridin-3-yl)-5-(1H-pyrazol-1-yl)-3H-imidazo[4,5-b]pyridin-3-yl)-2,3-dihydro-1H-inden-1-yl)-6-formyl-7-hydroxybenzo[d]thiazole-4-carboxamide]	≥ 2000	100 to 2000	100 to 2000	10 to 100
Nc1ncccc1-c1nc2ccc(-n3ccc(CO)n3)nc2n1-c1ccc2c(c1)CC[C@@H]2NC(=O)c1ccc(O)c(C=O)c1 [Example 127, (S)—N-(5-(2-(2-aminopyridin-3-yl)-5-(3-(hydroxymethyl)-1H-pyrazol-1-yl)-3H-imidazo[4,5-b]pyridin-3-yl)-2,3-dihydro-1H-inden-1-yl)-3-formyl-4-hydroxybenzamide]	100 to 2000	10 to 100	10 to 100	10 to 100
CCc1cc(-n2cccn2)nc2c1nc(-c1cccnc1N)n2-c1ccc2c(c1)CC[C@@H]2NC(=O)c1ccc(O)c(C=O)c1 [Example 197, N-[(1S)-5-[2-(2-aminopyridin-3-yl)-7-ethyl-5-(pyrazol-1-yl)imidazo[4,5-b]pyridin-3-yl]-2,3-dihydro-1H-inden-1-yl]-3-formyl-4-hydroxybenzamide]	10 to 100	10 to 100	100 to 2000	10 to 100
Cc1cc(-n2cccn2)nc2c1nc(-c1cccnc1N)n2-c1ccc2c(c1)CC[C@@H]2n1cnc2cc(O)c(C=O)cc2c1=O [Example 220, (S)-3-(5-(2-(2-aminopyridin-3-yl)-7-methyl-5-(1H-pyrazol-1-yl)-3H-imidazo[4,5-b]pyridin-3-yl)-2,3-dihydro-1H-inden-1-yl)-7-hydroxy-4-oxo-3,4-dihydroquinazoline-6-carbaldehyde]	100 to 2000	100 to 2000	100 to 2000	100 to 2000
